In patent US8771646B2, “Nicotinic acid and picolinic acid derived near-infrared fluorophores” (VisEn Medical, Inc., priority 2005, dated 2014):

Experiment: Absorption and emission maxima in water
Assay type: physicochemical

Abs. max (water): 643 nm | Em. Max (water): 663 nm
SMILES: O=C(O)c1ccc(C(=C\C=C2/Sc3ccccc3N2CCCS(=O)(=O)O)/C=C/c2sc3ccccc3[n+]2CCCS(=O)(=O)O)nc1 [Example 6]
